The values below are quoted from earlier work in patent US7919499B2, “Naltrexone long acting formulations and methods of use” (Alkermes, Inc., priority 2004, dated 2011).

In the data set the test system is patients with alcohol dependence. To be noted: oral vs placebo; for Risk difference as % reduction, relapse to heavy drinking / Risk difference (95% CI), relapse to heavy drinking: Hopkins meta-analysis; for Risk difference (95% CI), relapse to heavy drinking: nine studies, fixed effects model.
[1] abbreviates: Bouza et al, short term studies (≦12 weeks), listed as Oral Naltrexone.
Setting [2] is: Cochrane Review, 12 weeks, listed as Oral Naltrexone.

Read-outs that look alike come from different tables or passages of the source.

In the case of `O=C1CC[C@@]2(O)[C@H]3Cc4ccc(O)c5c4[C@@]2(CCN3CC2CC2)[C@H]1O5` [oral naltrexone, naltrexone], the “Risk difference as % reduction, relapse to heavy drinking” value is listed as 13% and the “Risk difference (95% CI), relapse to heavy drinking” value is given as 0.13. For the same molecule, the “Decrease of odds of relapsing to heavy drinking relative to placebo” value (Bouza et al, short term studies (≦12 weeks)) is reported as 38%. Further, under setting [1], the “Decrease of odds of relapsing to heavy drinking relative to placebo” value is reported as “(38% reduction)” and the “Odds ratio (95% CI), relapse to heavy drinking” value is 0.62 (0.52, 0.75). Also, for the setting “Cochrane Review, 12 weeks”, the “Decrease of relapse rate relative to placebo” value is given as 36%. Besides, under setting [2], the “Decrease of relapse rate relative to placebo” value is listed as “(36% reduction)” and the “Relative risk (95% CI), relapse to heavy drinking” value was 0.64 (0.51, 0.82). Further, under “listed as Oral Naltrexone”, the “Risk difference (95% CI), relapse to heavy drinking” value was 0.13 (0.08, 0.17) and the “Risk difference as % reduction, relapse to heavy drinking” value is “(13% reduction)”.
